According to patent US20160051493A1, “METHODS OF TREATMENT OF KERATINOCYTE-DERIVED LESIONS” (THE TRUSTEES OF COLUMBIA UNIVERSITY IN THE CITY OF NEW YORK, priority 2012, published 2016):
“Also recorded” adds a separate entry of the source. Like-named read-outs stand apart in the source and are kept apart here.

Experiments:
[1] = system: normal human epidermal keratinocytes; assay: Ratiometric fura-2 live-cell calcium imaging of keratinocytes; assay type: cell-based; details: for % Responders (undifferentiated) Mean ± SEM or SD: growth conditions, saturating agonist (4αPDD 3 μM, camphor 10 mM, 2-APB 100 μM, capsaicin 1 μM, mustard oil 300 μM), SD for capsaicin and mustard oil; for cytoplasmic Ca2+ signals in undifferentiated keratinocytes: 0.15%, within 1 minute of perfusion, versus vehicle
Description: (§1) Normal human keratinocytes were isolated from human foreskins by undergoing two enzymatic dissociation steps, first in dispase then in trypsin. Cells were cultured in EpiLife supplemented with human keratinocyte growth supplement (HKGS; Invitrogen). For all experiments with undifferentiated cells, keratinocytes were harvested or images at ˜75% confluency. Differentiation was induced by adding CaCl2 to the EpiLife media to reach a final [Ca2+] of 1.2 mM. Cells were typically cultured for 3 days under differentiation conditions before they were assayed. Keratinocytes were cultured for <5 passages. Purified Camphor (CAS #76-22-2), 2-APB (Tocris) or vehicle (1% EtOH)-containing media were used as indicated.
Human keratinocytes and SCC cells were washed in Ringer's solution (in mM: NaCl 140, KCl 5, D-glucose 10, HEPES 10, CaCl2 2, MgCl2 2, pH 7.2) and loaded with 5 μM fura-2AM and 1 μM pluronic (Invitrogen) for 30 minutes in the dark. During live-cell imaging, saturating concentrations of TRP agonists (10 mM Camphor, 100 μM 2-APB 1 μM Capsaicin, 300 μM Mustard oil or 3 μM 4αPDD) in Ringer's were used. Cells were imaged for 20 s to establish a baseline and then acutely treated with each agonist for 60 seconds. Imaging was performed on an Olympus IX81 microscope with a 20× (NA 0.17) objective and a Hamamatsu ORCA-R2 camera. 340- and 380-nm excitation and 540-nm emission filters were used to capture fura-2 fluorescence. Data are expressed as a ratio of fluorescent signals (340/380). All data acquisition was performed in MetaFluor. Data analysis was performed with custom algorithms in IgorPro. Cells with baseline levels ±2 SD above the mean were excluded from analysis as unhealthy. Responders were designated as cells whose 340/380 ratio was ≧20% above baseline.
TRP channels are selectively activated by endogenous and exogenous ligands at micromolar to millimolar concentrations. Since TRP channel activity increases over this range to allow graded Ca^2+ influx, receptor activity levels can be monitored by live-cell Ca^2+ imaging. A ratiometric calcium indicator (Fura-2) was employed to determine whether a panel of TRP-channel agonists elicited cytoplasmic calcium increases in human epidermal keratinocytes. (FIG. 1A-1E, FIG. 2A-2B, and Table 3).
Normal human keratinocytes were cultured in low-calcium media to promote proliferation or in 1.2-mM calcium media to induce differentiation. For live-cell imaging, keratinocytes were then washed and bathed in Ringer's solution containing 2 mM calcium so that calcium signals could be directly compared between cell populations.
In keratinocytes, increased intracellular calcium stimulates the terminal differentiation process. To determine whether camphor oil and its abundant constituents are directly bioactive on epithelial keratinocytes, a ratiometric Ca2+ indictor (Fura-2) was employed to test whether a panel of terpenes elicited cytoplasmic Ca2+ increases in undifferentiated human epidermal keratinocytes (FIG. 19A-19C). Keratinocytes were cultured according to our standard methods. For live-cell imaging, keratinocytes were bathed in Ringer's solution containing 2 mM Ca2+.

[2] = 0.5 to 5 percent ointment or liquid, once or twice a day for two to four weeks; cited from earlier work
[3] = system: normal human keratinocytes; assay: Keratinocyte cell counts (DAPI), morphology and EdU proliferation assay after 24 h treatment; details: in the presence of camphor
Description: as §1
Cells were treated with 2-APB or camphor for 24 hours at 37° C., exposed to EdU for 45 min, fixed and stained with DAPI for cell counting. EdU Click-It assays (Invitrogen) were used to assess cell-cycle entry. The cells were then fixed and stained with DAPI. Three fields per well were assayed via a 20× objective and there were 4 wells per treatment in each experiment. EdU=5-ethynyl-2′-deoxyuridine.
As Ca^2+ triggers the commitment switch from proliferation to differentiation in keratinocytes, it was reasoned that increasing intracellular calcium by incubating keratinocytes in TRP agonists might be sufficient to induce this cell-fate switch in low-calcium growth media. To test this hypothesis, normal human keratinocytes were cultured for 24 hours under low-Ca^2+ conditions in the presence of low (12.5 μM), half-maximal (50 μM) and saturating (100 μM) concentrations of 2-APB (FIG. 3A) or camphor (0-8 mM) (FIG. 3E). These TRP agonists were chosen because they reliably elicited intracellular calcium signaling in normal human keratinocytes (FIG. 1A-1E).
As camphor can activate both TRPV3 and TRPV1 channels, these experiments were repeated in the presence of a specific TRPV1 antagonist, AMG-9810 (Gavva et al., 2005).

TRPV3 = details: reported in literature; cited from earlier work
skin tumors = details: mouse, in vivo; cited from earlier work
[4] = system: precancerous lesions and SCCs; assay type: in vivo; details: 20% wt/wt in acetone, topical once daily, five weeks
normal keratinocytes = assay: In vivo keratinocyte proliferation (EdU, flow cytometry) in healthy mouse skin; parameters: species or system mice; details: 20% topical, five consecutive days
Description: Age matched FVB (female mice purchased from Jackson labs) aged 6-8 weeks were shave on their dorsal sides. Mice were then treated for five consecutive days with vehicle, 20% camphor white oil, 20% eucalyptol, 20% α-pinene, 20% dipentene, or 20% γ-terpinene (2-6 mice per group). Mice were then injected with EdU and sacrificed one hour later. The epidermis was isolated and stained for Itgα6, Sca1+, and EDU. Itgα6+Sca1+EdU+ cells were then identified on a flow cytometer.
To test whether effects of camphor white oil on normal keratinocytes are TrpV3 dependent proliferation in TrpV3 mutant and wild type mice treated with camphor oil was analyzed. TrpV3 mutant and wild type mice aged 6-8 weeks were shaved on their dorsal sides. Mice were then treated for five consecutive days with vehicle or 20% camphor oil (4-5 mice per group). Mice were then injected with EdU (5-ethynyl-2′-deoxyuridine) and sacrificed one hour later. The epidermis was isolated and stained for Itga6, Sca1, and EdU. Itga6+Sca1+EdU+ cells were then identified on a flow cytometer to identify cells in the intrafollicular epidermis that are actively proliferating.

[5] = responders F340:F380 increase ≧20%

CCCCCCCCCC(=O)O[C@@H]1[C@@H](C)[C@@]2(O)[C@@H](C=C(CO)C[C@@]3(O)C(=O)C(C)=C[C@@H]23)[C@@H]2C(C)(C)[C@]12OC(=O)CCCCCCCCC [4αPDD, 4α-phorbol-12,13 didecanoate, reference compound]
% Responders (differentiated) Mean ± SEM ([1]; differentiated in 1.2 mM Ca2+, responders F340:F380 increase ≧20%, 4αPDD 3 μM, camphor 10 mM, 2-APB 100 μM): 70.8 ± 11.1% | % Responders (undifferentiated) Mean ± SEM or SD [1, 5]: 84.8 ± 1.6% | keratinocytes with robust increases in intracellular Ca2+ ([1]; growth or differentiation conditions): > 70%

O=c1[nH]cc(F)c(=O)[nH]1 [5-fluorouracil]
cure rates [2]: up to 93%

CC(C)(C)c1ccc(/C=C/C(=O)Nc2ccc3c(c2)OCCO3)cc1 [AMG-9810, (E)-3-(4-t-butylphenyl)-N-(2,3-dihydrobenzo[b][1,4]dioxin-6-yl)acrylamide, reference compound]
effect of TRPV1 inhibition on camphor's effects on keratinocyte proliferation [3]: did not alter

CC1(C)C2CCC1(C)C(O)C2 (centres unmarked) [Borneol, reference compound]
effectiveness as a TRPV3 agonist relative to camphor (TRPV3): more effective than camphor

COc1cc(CNC(=O)CCCC/C=C/C(C)C)ccc1O [Capsaicin, reference compound]
% Responders (undifferentiated) Mean ± SEM or SD [1, 5]: 2.3+/−2.6%

CC1(C)C2CCC1(CS(=O)(=O)O)C(=O)C2=Cc1ccc(C=C2C(=O)C3(CS(=O)(=O)O)CCC2C3(C)C)cc1 [Ecamsule, Terephthalylidene Dicamphor Sulfonic Acid]
Results of safety: against skin tumors in mice (skin tumors): Protects

C=CCN=C=S [Mustard oil, reference compound]
% Responders (undifferentiated) Mean ± SEM or SD [1, 5]: 0.6 ± 1.2%^ | % Responders (undifferentiated) Mean ± SEM or SD ([1]; responders F340:F380 increase ≧20%, listed as Mustard Oil): 0.6+/−1.2% | % Responders (undifferentiated) Mean ± SEM or SD ([1]; responders F340:F380 increase ≧20%, listed as mustard oil): 0.6+/−1.2%

C=C(C)[C@H]1CC=C(C)CC1 [dipentene, Dipentene]
premalignant tumors per mouse versus vehicle [4]: antitumor effects | premalignant tumors per mouse versus vehicle ([4]; listed as Dipentene): most striking tumor reductions | keratinocyte proliferation (Itgα6+Sca1+EdU+ cells) compared with vehicle (normal keratinocytes): significant increases

CC12CCC(CC1)C(C)(C)O2 [eucalyptol, Eucalyptol]
keratinocyte proliferation (Itgα6+Sca1+EdU+ cells) compared with vehicle (normal keratinocytes): significant increases | cytoplasmic Ca2+ signals in undifferentiated keratinocytes [1]: no effects

CC1=CCC2CC1C2(C)C (stereo not drawn) [α-pinene, α-Pinene]
premalignant tumors per mouse versus vehicle [4]: antitumor effects; also recorded: most striking tumor reductions | keratinocyte proliferation (Itgα6+Sca1+EdU+ cells) compared with vehicle (normal keratinocytes): significant increases | cytoplasmic Ca2+ signals in undifferentiated keratinocytes [1]: stimulated detectable calcium signals; also recorded: induced calcium increases

CC1=CCC(C(C)C)=CC1 [γ-terpinene, γ-Terpinene]
keratinocyte proliferation (Itgα6+Sca1+EdU+ cells) compared with vehicle (normal keratinocytes): significant increases
